Experimental data published in paper PMC9220922, “Givinostat-Liposomes: Anti-Tumor Effect on 2D and 3D Glioblastoma Models and Pharmacokinetics” (Cancers, 2022).

What was measured:
T98G = test system: T98G; parameters: method as in PMID 25053824; conditions: cited from earlier work
U87-MG = test system: U87-MG; parameters: method as in PMID 25053824; conditions: cited from earlier work
LDLR = test: Immunoblot of receptor level in Gli36ΔEGFR-2; assay type: cell-based, human; conditions: Western blot; Figure 8 legend: LIP-GIV
Experimental: (§1) Whole cell lysates were obtained by washing cells twice in cold PBS and harvesting in 60 μL of radioimmunoprecipitation assay (RIPA) buffer (cat. no. 89901, ThermoFisher) supplemented with 1% of protease and phosphatase inhibitor cocktail (cat. no. 78446, ThermoFisher). Whole cell lysates were quantified using a BCA Protein Assay Kit (cat. No. 23227, ThermoFisher) and separated by electrophoresis through precast gels (NuPAGE^TM 4–12% Bis-Tris, 1.0 mm, Mini Protein Gel 10 or 15-wells, cat. No. NP0321 and NP0323, ThermoFisher).
(§2) Proteins were transferred to nitrocellulose membranes using iBlot^TM Transfer Stack (cat. No. IB301002, ThermoFisher) and membranes were blocked either in 5% milk or in 5% BSA in TBS with 0.1% Tween-20 (TBST) for 1 h. Membranes were then incubated overnight at 4 °C with the following primary antibodies: Acetyl-α-Tubulin (5335, 1:1000), α-Tubulin (2144, 1:1000), Histone H3 (9715, 1:1000) and β-Tubulin (2146, 1:1000) purchased from CST; β-Actin (MA5-15739, 1:5000), GAPDH (MA1-16757, 1:5000), VLDLR (MA5-24790, 1:1000), ABCA1 (PA1-16789, 1:500), LRP1 (MA1-27198, 1:500), and LDLR (PA5-22976, 1:1000) purchased from ThermoFisher. Membranes were incubated with secondary anti-rabbit antibody (A0545, 1:5000, Merck) or anti-mouse antibody (G21040, 1:20,000, Invitrogen) for 1 h at RT. Bands were detected using Immobilion ECL Ultra Western HRP Substrate (WBULS0100, Merck) under chemiluminescence using an Amersham Imager 600 (Cytiva, Marlborough MA, USA). Quantifications were made using ImageLab Software Version 6.1 (Bio-Rad, www.bio-rad.com).

LRP1 = test: Immunoblot of receptor level in Gli36ΔEGFR-2; assay type: cell-based, human; conditions: Western blot; Figure 8 legend: LIP-GIV
Experimental: as §1, §2

VLDLR = test: Immunoblot of receptor level in Gli36ΔEGFR-2; assay type: cell-based, human; conditions: Western blot; Figure 8 legend: LIP-GIV
Experimental: as §1, §2

[1] = Brain penetration after i.v. injection (LC-MS/MS); assay type: in vivo, Swiss CD1 mice; conditions: mice
Experimental: (§3) Mice were sacrificed at different time points up to 48 h after the injection and blood and brain were harvested. Blood was collected from the cava vein in tubes coated with Li-heparin anticoagulant and centrifuged at +4 °C, 3000 g for 10 min to obtain the plasma. After blood collection, brain was harvested, washed in saline, dried on absorbent paper, weighed, and placed into appropriate tubes. All samples were analyzed for their Givinostat content using the LC-MS/MS method. Stock solution of Givinostat, […]2375 (metabolites), and internal standard ITF2400 were prepared in ACN/water 1:1 at 1 mg/mL. Working solutions were prepared by sequential dilution in water:ACN 8:2. Brains were homogenized in 20 mM ammonium formate buffer (1 g/5 mL). In total, 45 μL of blank plasma or brain homogenates was added to 200 μL of ACN containing ITF2400 at 25 ng/mL and acted as internal standards. Samples were vortexed for 3 min and centrifuged for 10 min at 5 °C at […]. Samples were transferred into a 96-well plate, dried under nitrogen flow, and resuspended in 200 μL 0.1% FA H2O/ACN (75:25). After vortexing, samples were injected into LC-MS/MS. Samples were analyzed on a UPLC Acquity (Waters, Milford, MA, USA) coupled with an API 3200 Triple Quadrupole (ABSciex). Mobile phases were water and ACN with 0.1% FA on a Kinetex 2.6 μm C18 100 A 75 × 3 mm (Phenomenex, Torrance, CA, USA). Analytes were quantified in MRM ESI positive mode. […] Pharmacokinetic parameters were calculated using Excel Add in (PK Solver 2.0, Excel 2007 Microsoft add in). AUCs were calculated using an NCA by the linear trapezoidal rule, and a uniform weight was performed as a first approach. Graphical concentration-time curves were produced after Log transformation. The ke was estimated from the terminal part of the log-concentration-time plot including at least three data points excluding the Cmax.

Gli36ΔEGFR-2 = test: MTT cytotoxicity, GBM cells; assay type: cell-based; conditions: Homo sapiens, 24 h of treatment, read-out: mean calculated IC50
Experimental: (§4) Gli36ΔEGFR-2 and U87-MG were used as GBM in vitro models. Gli36ΔEGFR [27, 28], carrying the EGFRvIII mutation, was made resistant to TMZ after 1 month of in vitro exposure to 50 µM TMZ [29]. These cells were selected because the TMZ sensitivity was repeatedly tested in vitro and in vivo in orthotopic GBM models. Both Gli36ΔEGFR-2 and U87-MG were maintained in Dulbecco’s Modified Eagle Medium (DMEM) High Glucose w/o sodium pyruvate (ECM0101L, Euroclone, Milan, Italy) supplemented with 10% fetal bovine serum (FBS, ECS0180L, Euroclone, Milan, Italy), 4 mM L-glutamine (ECB3000D, Euroclone, Milan, Italy), and 100 U ml^−1 penicillin/streptomycin (P/S) (ECB3001B, Euroclone, Milan, Italy). Normal human astrocytes (NHAs, CC-2565, Lonza, Basel, Switzerland) were used as healthy astrocytes and maintained in AGM^TM Astrocyte Growth Medium BulletKit^TM (CC-3186, Lonza) as per the manufacturer’s protocol. Human cerebral microvascular endothelial cells (hCMECs), provided by Dr. S. Bourdoulous (Institut Cochin, Inserm, Paris, France), were used as a model of brain endothelial cells and cultured as reported in the literature. […]
(§5) The effect of free or encapsulated Givinostat was assessed by the MTT assay. […] At the designated times, the assay was performed as per the manufacturer’s protocol and absorbance was measured at 570 nm using a microplate reader (SPECTROstar Nano, BMG LABTECH, Ortenberg, Germany). […]

[2] = MTT cytotoxicity, healthy astrocytes; assay type: cell-based; conditions: human, normal human astrocytes (NHA), doses between 0.1 and 10 μM, read-out: cell viability
Experimental: as §4, §5

ABCA1 = test: Immunoblot of ABCA1 level in Gli36ΔEGFR-2; assay type: cell-based, human; conditions: Western blot; Figure 8 legend: LIP-GIV, 24 h
Experimental: as §1
Proteins were transferred to nitrocellulose membranes using iBlot^TM Transfer Stack (cat. No. IB301002, ThermoFisher) and membranes were blocked either in 5% milk or in 5% BSA in TBS with 0.1% Tween-20 (TBST) for 1 h. […] Bands were detected using Immobilion ECL Ultra Western HRP Substrate (WBULS0100, Merck) under chemiluminescence using an Amersham Imager 600 (Cytiva, Marlborough MA, USA). Quantifications were made using ImageLab Software Version 6.1 (Bio-Rad, www.bio-rad.com).

[3] = Plasma pharmacokinetics after i.v. injection (LC-MS/MS); assay type: in vivo; conditions: Swiss CD1, mouse, iv, mice
Experimental: as §3

Cn1nnc2c(C(N)=O)ncn2c1=O [TMZ, temozolomide]
IC50 (T98G): 100 to 500 µM
IC50 (U87-MG): 100 to 500 µM

CCN(CC)Cc1ccc2cc(COC(=O)Nc3ccc(C(=O)NO)cc3)ccc2c1 [Givinostat, [6-diethylaminomethyl) naphtalen-2-yl] methyl N-[4-(hydroxycarbamoyl) phenyl] carbamate]
LDLR protein level (LDLR): significantly reduced
LRP1 protein level (LRP1): significantly reduced
VLDLR protein level (VLDLR): significantly reduced
Kp ([1]; Swiss CD1, mouse, brain and plasma, iv, 7.5 mg/kg single i.v., read-out: AUCbrain/AUCplasma ratio): 0.372
concentration at 5 min ([1]; Swiss CD1, mouse, brain, iv, 7.5 mg/kg i.v., 5 min, read-out: Givinostat brain level): 102 ng/g
concentration at 10 min ([1]; Swiss CD1, mouse, brain, iv, 7.5 mg/kg i.v., 10 min, read-out: Givinostat brain level): 101 ng/g
concentration at 0.25 h ([1]; Swiss CD1, mouse, brain, iv, 7.5 mg/kg i.v., 0.25 h, read-out: Givinostat brain level): 90 ng/g
concentration at 0.5 h ([1]; Swiss CD1, mouse, brain, iv, 7.5 mg/kg i.v., 0.5 h, read-out: Givinostat brain level): 83 ng/g
concentration at 1 h ([1]; Swiss CD1, mouse, brain, iv, 7.5 mg/kg i.v., 1 h, read-out: Givinostat brain level): 44 ng/g
concentration at 2 h ([1]; Swiss CD1, mouse, brain, iv, 7.5 mg/kg i.v., 2 h, read-out: Givinostat brain level): 30 ng/g
concentration at 4 h ([1]; Swiss CD1, mouse, brain, iv, 7.5 mg/kg i.v., 4 h, read-out: Givinostat brain level): 13 ng/g
concentration at 6 h ([1]; Swiss CD1, mouse, brain, iv, 7.5 mg/kg i.v., 6 h, read-out: Givinostat brain level): 7 ng/g
Cmax ([1]; Swiss CD1, mouse, brain, iv, 7.5 mg/kg single i.v.): ~100 ng/g
Givinostat brain level ([1]; 7.5 mg/kg i.v., 24 h): below detection limits
IC50 (Gli36ΔEGFR-2): 0.75 µM
viability at 24 h [2]: ≥ 100%
ABCA1 expression (ABCA1): non-significant trend towards a decrease
concentration at 5 min ([3]; 7.5 mg/kg i.v., 5 min, read-out: Givinostat plasma level): 1030 ng/mL
concentration at 10 min ([3]; 7.5 mg/kg i.v., 10 min, read-out: Givinostat plasma level): 597 ng/mL
concentration at 0.25 h ([3]; 7.5 mg/kg i.v., 0.25 h, read-out: Givinostat plasma level): 431 ng/mL
concentration at 0.5 h ([3]; 7.5 mg/kg i.v., 0.5 h, read-out: Givinostat plasma level): 256 ng/mL
concentration at 1 h ([3]; 7.5 mg/kg i.v., 1 h, read-out: Givinostat plasma level): 75 ng/mL
concentration at 2 h ([3]; 7.5 mg/kg i.v., 2 h, read-out: Givinostat plasma level): 19 ng/mL
concentration at 4 h ([3]; 7.5 mg/kg i.v., 4 h, read-out: Givinostat plasma level): 6 ng/mL
concentration at 6 h ([3]; 7.5 mg/kg i.v., 6 h, read-out: Givinostat plasma level): 4 ng/mL
MRT last ([3]; 7.5 mg/kg single i.v., read-out: mean residence time (MRT0-t)): 0.6 h
clearance ([3]; 7.5 mg/kg single i.v., read-out: plasma clearance (CL) (converted)): 257 mL/min/kg
AUC(0-t) ([3]; 7.5 mg/kg single i.v., read-out: plasma exposure (AUC0-t)): 478 ng·h/mL
Vd ([3]; 7.5 mg/kg single i.v., read-out: volume of distribution): 10.8 L/kg
half-life ([3]; Givinostat 7.5 mg/kg single i.v., read-out: half-life (t1/2) (converted)): 1.7 h
